Patent US10053468B2, “Heterocyclic compound” (TAKEDA PHARMACEUTICAL COMPANY LIMITED, priority 2013, dated 2018)
Like-named read-outs stand apart in the source and are kept apart here.

Assays:
[1] = target: T1, RORγt (Homo sapiens, UniProt P51449); experiment: Jurkat reporter test (human IL-17 ROR response element luciferase, RORγt vector); assay type: cell-based; conditions: read-out: Luminescence level inhibitory rate at test compound 3 μM (%)
T1 sequence (P51449 1-497 isoform P51449-2): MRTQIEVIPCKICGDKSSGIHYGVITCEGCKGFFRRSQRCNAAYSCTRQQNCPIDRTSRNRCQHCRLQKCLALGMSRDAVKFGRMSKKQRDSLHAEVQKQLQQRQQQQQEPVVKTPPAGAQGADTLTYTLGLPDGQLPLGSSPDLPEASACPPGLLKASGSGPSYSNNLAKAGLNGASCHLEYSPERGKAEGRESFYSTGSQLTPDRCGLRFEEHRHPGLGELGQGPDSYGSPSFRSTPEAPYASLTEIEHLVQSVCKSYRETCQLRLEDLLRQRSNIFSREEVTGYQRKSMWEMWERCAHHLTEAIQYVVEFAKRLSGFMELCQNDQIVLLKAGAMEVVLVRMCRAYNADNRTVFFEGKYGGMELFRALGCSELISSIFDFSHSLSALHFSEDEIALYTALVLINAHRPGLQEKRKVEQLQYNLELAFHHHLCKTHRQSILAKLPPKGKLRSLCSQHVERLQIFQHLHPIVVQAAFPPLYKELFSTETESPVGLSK
Procedure, shortened: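 Luminescence (Bright-Glo, 10 min, RT) was measured after overnight compound treatment of electroporated Jurkat cells (1350 V, 10 ms interval, 3 pulses). The reaction medium was RPMI with 10% lipid-reduced FCS, 10 mM HEPES (pH 7.5) and 5 μM lovastatin.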

[2] = target: T1, RORγt; experiment: Cofactor recruitment test (Alpha Screen, biotinylated SRC-1 peptide); assay type: biochemical; conditions: read-out: Signal value inhibitory rate at test compound 1 μM (%)
Protocol: Cofactor Recruitment Test
Cofactor recruitment test was performed by Alpha Screen (Histidine Detection Kit, PerkinElmer) method. First, a test compound was diluted with an assay buffer (50 mM Tris-HCl (pH 7.5), 50 mM KCl, 1 mM DTT, 0.1% BSA) and added to a 384 well plate by 5 μL. […] The mixture was stood in a dark place for 1 hr, and the signal value was measured by Envision (PerkinElmer).

[3] = target: T1, RORγt; experiment: RORγt binding test using fluorescent-labeled cholesterol (TR-FRET); conditions: read-out: Binding inhibitory rate of fluorescent-labeled cholesterol to RORγt at test compound 1 μM (%)
Procedure, shortened: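 After 20 min at room temperature with His-tagged RORγt and BODIPY-cholesterol in pH 7.5 Tris buffer (NaCl, DTT, BSA), compound wells got terbium anti-His antibody for another 20 min. Time-resolved FRET was read with excitation 320 nm, emission 520 nm and a 100 µs delay.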

[4] = target: T1, RORγt; experiment: RORγt binding test using fluorescent-labeled synthetic ligand (TR-FRET); conditions: read-out: Binding inhibitory rate of fluorescent-labeled synthetic ligand to RORγt at test compound 1 μM (%)
Procedure, shortened: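 His-tagged RORγt (diluted to 240 nM) with compound, then fluorescent synthetic ligand (diluted to 12 μM), 20 min at room temperature, followed by Tb anti-His antibody (diluted to 8 nM), 20 min.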

[5] = test compound 3 μM, Jurkat cells

inhibition at 3 µM [1, 5] | SMILES | inhibition at 1 µM [2] | inhibition at 1 µM [3] | inhibition at 1 µM [4] | inhibition at 3 µM ([1]; Jurkat)
101% | COc1ccc2c(n1)CCN(C(=O)Cc1cc(O)no1)[C@H]2C(=O)Nc1cc(F)c2c(c1)CCC2(C)C [Example 117, (5R)-N-(7-fluoro-1,1-dimethyl-2,3-dihydro-1H-inden-5-yl)-6-((3-hydroxy-1,2-oxazol-5-yl)acetyl)-2-methoxy-5,6,7,8-tetrahydro-1,6-naphthyridine-5-carboxamide] | 87% | 102% | 102% | –
– | COCc1ccc2c(c1)CCN(C(=O)Cc1cc(O)no1)[C@H]2C(=O)Nc1cc(F)c([Si](C)(C)C)c(F)c1 [Example 121, (1R)-N-(3,5-difluoro-4-(trimethylsilyl)phenyl)-2-((3-hydroxy-1,2-oxazol-5-yl)acetyl)-6-(methoxymethyl)-1,2,3,4-tetrahydroisoquinoline-1-carboxamide] | 100% | 101% | 101% | 103%
– | CCOc1ccc2c(n1)CCN(C(=O)c1cc(O)no1)[C@H]2C(=O)Nc1cc(F)c([Si](C)(C)C)c(F)c1 [Example 126, (5R)-N-(3,5-difluoro-4-(trimethylsilyl)phenyl)-2-ethoxy-6-((3-hydroxy-1,2-oxazol-5-yl)carbonyl)-5,6,7,8-tetrahydro-1,6-naphthyridine-5-carboxamide] | 100% | 101% | 101% | 102%
– | CCOc1ccc2c(n1)CCN(C(=O)CCCC(=O)O)[C@H]2C(=O)Nc1cc(F)c([Si](C)(C)C)c(F)c1 [Example 129, 5-((5R)-5-((3,5-difluoro-4-(trimethylsilyl)phenyl)carbamoyl)-2-ethoxy-7,8-dihydro-1,6-naphthyridin-6(5H)-yl)-5-oxopentanoic acid] | 99% | 98% | 101% | 102%
– | COCc1ccc2c(c1)CCN(C(=O)CCCC(=O)O)[C@H]2C(=O)Nc1cc(F)c([Si](C)(C)C)c(F)c1 [Example 130, 5-((1R)-1-((3,5-difluoro-4-(trimethylsilyl)phenyl)carbamoyl)-6-(methoxymethyl)-3,4-dihydroisoquinolin-2(1H)-yl)-5-oxopentanoic acid] | 100% | 102% | 102% | 104%
– | COCc1ccc2c(c1)CCN(C(=O)c1cc(O)no1)[C@H]2C(=O)Nc1cc(F)c([Si](C)(C)C)c(F)c1 [Example 131, (1R)-N-(3,5-difluoro-4-(trimethylsilyl)phenyl)-2-((3-hydroxy-1,2-oxazol-5-yl)carbonyl)-6-(methoxymethyl)-1,2,3,4-tetrahydroisoquinoline-1-carboxamide] | 100% | 103% | 101% | 103%
104% | COCc1ccc2c(c1)CCN(C(=O)Cc1cc(O)no1)[C@H]2C(=O)Nc1ccc(C(C)(C)C)c(F)c1 [Example 132, (1R)-N-(4-tert-butyl-3-fluorophenyl)-2-((3-hydroxy-1,2-oxazol-5-yl)acetyl)-6-(methoxymethyl)-1,2,3,4-tetrahydroisoquinoline-1-carboxamide] | 98% | 100% | 102% | –
103% | COCc1ccc2c(c1)CCN(C(=O)c1cc(O)no1)[C@H]2C(=O)Nc1cc(F)c2c(c1)CCC2(C)C [Example 133, (1R)-N-(7-fluoro-1,1-dimethyl-2,3-dihydro-1H-inden-5-yl)-2-((3-hydroxy-1,2-oxazol-5-yl)carbonyl)-6-(methoxymethyl)-1,2,3,4-tetrahydroisoquinoline-1-carboxamide] | 96% | 103% | 101% | –
– | COCc1ccc2c(n1)CCN(C(=O)c1cc(O)no1)[C@H]2C(=O)Nc1cc(F)c([Si](C)(C)C)c(F)c1 [Example 136, (5R)-N-(3,5-difluoro-4-(trimethylsilyl)phenyl)-6-((3-hydroxy-1,2-oxazol-5-yl)carbonyl)-2-(methoxymethyl)-5,6,7,8-tetrahydro-1,6-naphthyridine-5-carboxamide] | 97% | 100% | 102% | 103%
103% | COCc1ccc2c(c1)CCN(C(=O)c1cc(O)no1)[C@H]2C(=O)Nc1cc(F)c(C(C)(C)COC)c(F)c1 [Example 137, (1R)-N-(3,5-difluoro-4-(1-methoxy-2-methylpropan-2-yl)phenyl)-2-((3-hydroxy-1,2-oxazol-5-yl)carbonyl)-6-(methoxymethyl)-1,2,3,4-tetrahydroisoquinoline-1-carboxamide] | 98% | 102% | 102% | –
– | COCc1ccc2c(n1)CCN(C(=O)Cc1cc(O)no1)[C@H]2C(=O)Nc1cc(F)c([Si](C)(C)C)c(F)c1 [Example 138, (5R)-N-(3,5-difluoro-4-(trimethylsilyl)phenyl)-6-((3-hydroxy-1,2-oxazol-5-yl)acetyl)-2-(methoxymethyl)-5,6,7,8-tetrahydro-1,6-naphthyridine-5-carboxamide] | 100% | 102% | 101% | 104%
83% | CCOc1ccc2c(c1)CCN(C(=O)Cc1cc(O)no1)[C@H]2C(=O)Nc1cc(F)c(C(C)(C)COCCOC)c(F)c1 [Example 143, (1R)-N-(3,5-difluoro-4-(1-(2-methoxyethoxy)-2-methylpropan-2-yl)phenyl)-6-ethoxy-2-((3-hydroxy-1,2-oxazol-5-yl)acetyl)-1,2,3,4-tetrahydroisoquinoline-1-carboxamide] | 56% | 101% | 101% | –
101% | CCOc1ccc2c(n1)CCN(C(=O)Cc1cc(O)no1)[C@H]2C(=O)Nc1cc(F)c2c(c1)CCC2(C)C [Example 147, (5R)-2-ethoxy-N-(7-fluoro-1,1-dimethyl-2,3-dihydro-1H-inden-5-yl)-6-((3-hydroxy-1,2-oxazol-5-yl)acetyl)-5,6,7,8-tetrahydro-1,6-naphthyridine-5-carboxamide] | 89% | 101% | 101% | –
– | CCOc1ccc2c(n1)CCN(C(=O)Cc1cc(O)no1)[C@H]2C(=O)Nc1ccc([Si](C)(C)C)c(F)c1 [Example 151, (5R)-2-ethoxy-N-(3-fluoro-4-(trimethylsilyl)phenyl)-6-((3-hydroxy-1,2-oxazol-5-yl)acetyl)-5,6,7,8-tetrahydro-1,6-naphthyridine-5-carboxamide] | 99% | 99% | 102% | 102%
– | CCOc1ccc2c(n1)CCN(C(=O)CCCC(=O)O)[C@H]2C(=O)Nc1ccc([Si](C)(C)C)c(F)c1 [Example 152, 5-((5R)-2-ethoxy-5-((3-fluoro-4-(trimethylsilyl)phenyl)carbamoyl)-7,8-dihydro-1,6-naphthyridin-6(5H)-yl)-5-oxopentanoic acid] | 97% | 102% | 101% | 103%
